The source of these data is US20160250121A1, “USE OF MONO ORNITHINE KETOGLUTARATE (MOKG)” (L'OREAL, priority 2013, published 2016).

The assay has as its system Hair follicles. Put plainly: Activity of actives on hair follicle growth (cultured scalp hair follicles, elongation by image analysis). The settings on record: for Growth: average elongation as percentage of control group (=100), 6 days of cultivation (5 of treatment). The class given is cell-based. The method, then: Hair follicles were taken from a single donor's scalp sample and transferred in sterile 24 well plates to be cultivated by using a modified Williams' Medium E. Cultivation took place for six days, while the experimental treatment of the follicles started 24 hours from the beginning of the cultivation. Hair follicles were selected for the experiments after 18 h of cultivation. Only those follicles showing a good vital stage and a growth of not less than 0.2 mm were considered suitable to be maintained in culture. All experimental groups and the control were prepared comprising 12 to 18 follicles, plated in 24-well plates at a density of 3 hair follicles/well. The hair follicles showing evident signs of sufferance during the culture for reasons not dependent on the experimental treatment were excluded from the final analysis.
The treatments consisted of mOKG concentrations varying from 0.001 to 0.1% b.w.
The growth performances observed in the treated hair follicles were compared to a control group cultured in the same culture medium free from OMG.
The experiment was terminated after 6 days of cultivation (5 of treatment). The growth of the hair follicles was studied by microphotography and subsequently determined by image analysis.
The average elongation detected in the experimental groups was expressed as percentage value of the growth performed by the control group. The statistical significance of the effects produced by the treatments was evaluated by means of analysis of variance (ANOVA) according the Duncan's method.

[1] abbreviates: Conc. 0.001% b.w. in culture medium.
[2] abbreviates: Conc. 0.01% b.w. in culture medium.
The mark [3] stands for this setting: Conc. 0.1% b.w. in culture medium.

Consider `O=C(O)CCC(=O)C(=O)O` [Alpha-ketoglutarate], for which the Growth reads like this: under setting [1], 101%; under setting [2], 103%; under setting [3], 104%.
With `NCCC[C@H](N)C(=O)O.O=C(O)CCC(=O)C(=O)O` [Mono Ornithine Ketoglutarate, Mono-Ornithine (alpha-) ketoglutarate], the Growth under setting [1] is 112%, the Growth under setting [2] turned out to be 120% and the Growth under setting [3] is 122%. Besides, the “Factor between effective concentrations (mOKG 0.001% b.w. vs OKG 0.1% b.w.)” value (mOKG significantly effective at 0.001% b.w. as OKG at 0.1% b.w.) was 100.
On to `Cl.NCCC[C@H](N)C(=O)O` [Ornithine hydrochloride], for which the Growth came to 100% under setting [1], 102% under setting [2] and 106% under setting [3].
Regarding Di Ornithine Ketoglutarate, the Growth was 101% under setting [1], 107% under setting [2] and 116% under setting [3].
